Measurements reported in EP4345091A1, “BENZOIC ACID DERIVATIVES, METHODS AND USES THEREOF” (priority 2022, dated 2024).
Values after ≈ are worked out from the molar mass of the structure shown. Like-named read-outs stand apart in the source and are kept apart here.

Tests used:
[1] = system: Mycobacterium tuberculosis H37Rv; experiment: MIC and MBC by broth microdilution against M. tuberculosis H37Rv; assay type: cell-based, Mycobacterium tuberculosis H37Rv (ATCC 27294); conditions: Mycobacterium tuberculosis, H37RV
[2] = Cytotoxicity assay in THP-1 cells; assay type: cell-based, human; conditions: human, THP-1 cells, n/d (no toxicity at maximum tested dose), read-out: LC50 (the source's name)
Source text: Cytotoxicity results were obtained through lethal concentration for 50% of the cell population, LC50. Table 6. Results obtained from cytotoxicity assays for the esters, represented by LD50 in µg/mL and comparison with MIC values, in µg/mL with toxicity/activity (T/A) index.
The T/A index quantitatively is the ratio between the lethal concentration (LC50) given by the minimum inhibitory concentration (MIC).

[3] = Stability in human plasma (enzymatic hydrolysis)
[4] = system: Mycobacterium smegmatis homogenate; experiment: Stability in Mycobacterium smegmatis homogenate (enzymatic hydrolysis); conditions: Mycobacterium smegmatis homogenate, 37°C
[5] = Chemical stability in phosphate buffer pH 7.4
Method: Chemical hydrolysis was evaluated in phosphate buffer at physiological pH (7.4) to determine its influence in enzymatic studies.
1176 µL pH 7.4 phosphate buffer or pH 5.9 phosphate buffer, 18 µL ACN and 6 µL of a 10-1 M stock solution of the prodrug in ACN were mixed in a 2mL vial. The solution was incubated at 37 °C and 50 µL aliquots were removed, mixed with 450 µL of ACN: H2O 1:1. The solution was analysed by HPLC, the remaining substrate and the correspondent acid were both measured.
The eluant was a mixture of acetonitrile (60%/70%) and aqueous phosphate buffer with 5% of KH2PO4/H3PO4 0.025M (40%/30%). The flow rate was always 1 mL/1 min and wavelength was set at 230 nm. All quantifications were evaluated using calibration curves from stock solutions.
The initial substrate concentration was 5 x 10^-4 M in all stability assays. All incubations were carried out at pH 7.4 and 37 °C under agitation using the phosphate buffer described above as diluting agent. […] Acetonitrile (2%) was used in all studies to ensure adequate solubilization of the substrates.

[6] = system: Mycobacterium Bovis BCG infecting human macrophages THP-1; assay type: cell-based
[7] = M. tuberculosis H37Rv, Table 3, read-out: MBC
[8] = M. tuberculosis H37Rv, Tables 3, 6 and 7, read-out: MIC

Row | SMILES | MBC [1, 7] | MIC [1, 8] | CC50 ([2]; THP-1 monocytic cells) | Degradation (%) 24h [3] | Degradation (%) 48h [3] | Degradation (%) 72h [3] | Degradation (%) 24h [4] | Degradation (%) 48h [4] | MBC [1] | MIC [1] | Degradation (%) 24h [5] | Degradation (%) 48h [5] | Degradation (%) 72h [5] | Degradation (%) 168h [5] | Degradation (%) 332h [5] | other results
1 | CCCCCCCCCCOC(=O)c1cc([N+](=O)[O-])cc(C(F)(F)F)c1 [Compound 4d, Decyl 3-nitro-5-(trifluoromethyl)benzoate] | 256 µg/mL (≈ 682 µM) | 128 µg/mL (≈ 341 µM) | > 512 µg/mL | 26% | 45% | 60% | 5% | 10% | – | – | – | – | – | – | – | –
2 | CCCCCCCCOC(=O)c1cc([N+](=O)[O-])cc([N+](=O)[O-])c1 [Compound 3c] | – | – | – | 57% | 81% | 92% | 10% | 19% | 8 µg/mL (≈ 24.7 µM) | 8 µg/mL (≈ 24.7 µM) | 0% | 0% | 1% | 2% | 3% | –
3 | CCCCCCNC(=O)c1ccccc1 [Compound 5b, N-hexyl-benzamide] | 64 µg/mL (≈ 312 µM) | 64 µg/mL (≈ 312 µM) | – | – | – | – | 1% | 2% | – | – | – | – | – | – | – | –
4 | CCCCCCCCOC(=O)c1cc([N+](=O)[O-])cc(C(F)(F)F)c1 [Compound 4c, Octyl 3-nitro-5-(trifluoromethyl)benzoate] | – | – | – | 42% | 67% | 81% | 8% | 16% | – | – | 0% | 1% | 1% | 3% | 6% | –
5 | CCCCCCCCCCCCNC(=O)c1ccccc1 [Compound 5e, N-dodecyl-benzamide] | > 256 µg/mL | > 256 µg/mL | – | 0% | 0% | 0% | 0% | 0% | – | – | 0% | 0% | 0% | 0% | 0% | –
6 | CCCCCCCCCCOC(=O)c1cc([N+](=O)[O-])cc([N+](=O)[O-])c1 [Compound 3d, Decyl 3,5-dinitrobenzoate] | – | – | > 512 µg/mL | 18% | 32% | 44% | 5% | 9% | 4 µg/mL (≈ 11.4 µM) | 4 µg/mL (≈ 11.4 µM) | – | – | – | – | – | CFU x10^4 ([6]; Time 0 days, compound concentration 2 µg/ml): 9.2 CFUs per mL; CFU x10^4 ([6]; Time 1 day, compound concentration 2 µg/ml): 12.5 CFUs per mL; CFU x10^4 ([6]; Time 3 days, compound concentration 2 µg/ml): 12.5 CFUs per mL; CFU x10^4 ([6]; Time 7 days, compound concentration 2 µg/ml): 8.5 CFUs per mL
7 | CCCCCCCCCCCCOC(=O)c1cc([N+](=O)[O-])cc(C(F)(F)F)c1 [Compound 4e, Dodecyl 3-nitro-5-(trifluoromethyl)benzoate] | > 1020 µg/mL | > 1020 µg/mL | > 512 µg/mL | 1% | 2% | 3% | 3% | 6% | – | – | 1% | 2% | 3% | 6% | 11% | –
8 | CCCCNC(=O)c1ccccc1 [Compound 5a, N-butyl-benzamide] | 256 µg/mL (≈ 1440 µM) | 256 µg/mL (≈ 1440 µM) | – | 0% | 0% | 0% | 2% | 3% | – | – | 0% | 0% | 0% | 0% | 0% | –
9 | CCCCCCCCCCCCNC(=O)c1ccc([N+](=O)[O-])cc1 [Compound 6e, N-dodecyl-4-nitrobenzamide] | 256 µg/mL (≈ 765 µM) | 256 µg/mL (≈ 765 µM) | – | 0% | 0% | 1% | 2% | 3% | – | – | 0% | 0% | 0% | 0% | 0% | –
10 | NNC(=O)c1ccncc1 [INH, isoniazid, reference compound] | 0.05 µg/mL (≈ 0.365 µM) | 0.025 µg/mL (≈ 0.182 µM) | – | – | – | – | – | – | – | – | – | – | – | – | – | CFU x10^4 ([6]; Time 0 days, concentration 0.1 µg/ml): 9.2 CFUs per mL; CFU x10^4 ([6]; Time 1 day, concentration 0.1 µg/ml): 9.91 CFUs per mL; CFU x10^4 ([6]; Time 3 days, concentration 0.1 µg/ml): 1.33 CFUs per mL; CFU x10^4 ([6]; Time 7 days, concentration 0.1 µg/ml): 0.24 CFUs per mL
11 | CCCCCCCCCCCCCCCCOC(=O)c1cc([N+](=O)[O-])cc([N+](=O)[O-])c1 [Compound 3g, Hexadecyl 3,5-dinitrobenzoate] | – | – | > 512 µg/mL | 1% | 3% | 4% | 2% | 4% | > 1020 µg/mL | > 1020 µg/mL | – | – | – | – | – | –
12 | CCCCCCCCCCCCOC(=O)c1cc([N+](=O)[O-])cc([N+](=O)[O-])c1 [Compound 3e] | – | – | – | 29% | 50% | 65% | 4% | 8% | 16 µg/mL (≈ 42.1 µM) | 8 µg/mL (≈ 21 µM) | 0% | 0% | 1% | 1% | 2% | CC50 [2]: > 512 µg/mL
